pIC50: −log10 of the molar value.
What was measured:
T-47D = assay: Antiproliferative SRB assay (NCI protocol), T-47D; assay type: cell-based, human; conditions: for Selectivity index (SI) on tumor cells: CC50 splenocytes / GI50 T-47D; for GI50: T-47D (breast), 48 h drug exposure, SRB, ± SD
Experimental: (§1) In vitro antiproliferative activity was evaluated using the protocol of the National Cancer Institute (NCI) after 48 h of drug exposure using the sulforhodamine B (SRB) assay.
(§2) The following human solid tumor cell lines were used in this study: HBL-100 (breast), HeLa (cervix), SW1573 (non-small cell lung), T-47D (breast), A549 (lung), and WiDr (colon). These cell lines were a kind gift from Prof. G. J. Peters (VU Medical Center, Amsterdam, The Netherlands). Cells were maintained in 25 cm^2 culture flasks in RPMI 1640 supplemented with 5% heat-inactivated fetal calf serum and 2 mM L-glutamine in a 37 °C, 5% CO2, 95% humidified air incubator. Exponentially growing cells were trypsinized and resuspended in antibiotic containing medium (100 units penicillin G and 0.1 mg of streptomycin per mL). Single cell suspensions displaying > 97% viability by trypan blue dye exclusion test were subsequently counted. After counting, dilutions were made to give the appropriate cell densities for inoculation onto 96-well microtiter plates. Cells were inoculated in a volume of 100 μL per well at densities of 5000 (WiDr and T-47D), and 2500 (A549, HeLa, SW1573 and HBL-100) cells per well, based on their doubling times.
(§3) Chemosensitivity tests were performed using the SRB assay of the NCI with slight modifications. Briefly, pure compounds were initially dissolved in DMSO at 400 times the desired final maximum test concentration. Control cells were exposed to an equivalent concentration of DMSO (0.25% v/v, negative control). Each agent was tested in triplicates at different dilutions in the range 1–100 μM. Drug treatment started on day 1 after plating. Drug incubation periods were 48 h, after which cells were precipitated with 25 μL of ice-cold 50% (w/v) trichloroacetic acid and fixed for 60 min at 4 °C. Then, the SRB assay was performed. The optical density (OD) of each well was measured at 530 nm, using BioTek’s PowerWave XS Absorbance Microplate Reader. Values were corrected for background OD from wells containing only culture medium. The percentage growth (PG) was calculated with respect to untreated control cells (C) at each level of drug concentrations based on the difference in OD at the start time (T0) and at the end of drug exposure (T), according to NCI formulas. Therefore, if T is greater than or equal to T0, the calculation is 100 × ((T − T0)/(C − T0)). If T is lower than T0, denoting cell death, the calculation is 100 × ((T − T0)/(T0)). The effect is defined as the growth percentage, where 50% growth inhibition (GI50) represents the concentration at which PG is +50. Based on these calculations, a PG value of 0 corresponds to the number of cells present at the beginning of drug exposure, while negative PG values denote net cell death.

WiDr = assay: Antiproliferative SRB assay (NCI protocol), WiDr; assay type: cell-based, human; conditions: for Selectivity index (SI) on tumor cells: CC50 splenocytes / GI50 WiDr; for GI50: WiDr (colon), 48 h drug exposure, SRB, ± SD
Experimental: as §1, §2, §3

HeLa = assay: Antiproliferative SRB assay (NCI protocol), HeLa; assay type: cell-based, human; conditions: for Selectivity index (SI) on tumor cells: CC50 splenocytes / GI50 HeLa; for GI50: HeLa (cervix), 48 h drug exposure, SRB, ± SD
Experimental: as §1, §2, §3

[1] = tested on: Trypanosoma cruzi epimastigotes (RA strain); assay: In vitro anti-Trypanosoma cruzi assay ((3H) thymidine uptake); assay type: cell-based; conditions: for Selectivity Index on T. cruzi epimastigotes: CC50 splenocytes / IC50 epimastigotes; for pIC50: Trypanosoma cruzi, epimastigotes (RA strain), ± SD; for Trypanocidal activity (in words): T. cruzi
Experimental: Trypanosoma cruzi epimastigotes (RA strain, from discrete typing unit (DTU) VI) were grown in a biphasic medium. Cultures were maintained by weekly passages at 28 °C [18].
The growth inhibition of T. cruzi epimastigotes was evaluated by a (^3H) thymidine uptake assay as previously described. Natural sesquiterpenes and derivatives were evaluated at concentrations ranging from 1.5 to 50 µg/mL. Benznidazole (Active Pharmaceutical Ingredient) was used as positive control (Elea). The percentage of inhibition was calculated as 100 = {((cpm of treated parasites)/(cpm of untreated parasites)) × 100}.
Figure 5 Effect of the natural sesquiterpene tessaric acid (1), ilicic acid (2), and ilicic alcohol (3) and their derivatives on T. cruzi. Epimastigotes (RA strain) were cultured in the presence of the compounds (50–1.5 µg/mL). Determinations were performed by triplicate. The results are expressed as the mean ± SD. (A) Effect of tessaric acid and derivatives on epimastigotes; (B) Effect of ilicic acid and derivatives on epimastigotes; (C) Effect of ilicic alcohol and derivatives on epimastigotes.

[2] = Cytotoxicity on primary cell culture (flow cytometry, PI); assay type: cell-based; conditions: Balb/c, mouse, primary splenocytes (spleen cells), ± SD, read-out: Cytotoxic activity on spleen cells (CC50)
Experimental: The cytotoxicity of the natural sesquiterpenes (1–3) and derivatives (4–19) was determined on primary cell cultures (splenocytes obtained from Balb/c mouse). […] Derivatives of tessaric acid have shown an improvement in CC50 values in comparison with the natural sesquiterpene 1. […] All the derivatives synthesized from alcohol ilicic (compounds 10–19) were more toxic to mammalian cells than the natural compound (3).
The cytotoxicity of the compounds was evaluated on splenocytes obtained from Balb/c mouse (1.5 × 10^5) and incubated with different drug dilutions (5–200 μg/mL) as previously described. Cell death was determined by flow cytometry using a BD FACSaria II cytometer. Cells incubated only with drug vehicle were used as 100% viability control, and death percentage was calculated according to the following formula: Death%=1−(%PI^−cells)drug−treated/(%PI^−cells)100% viability control × 100
The concentration capable of causing 50% cell death (CC50) was determined using a non-linear regression approach.

HBL-100 = assay: Antiproliferative SRB assay (NCI protocol), HBL-100; assay type: cell-based, human; conditions: HBL-100 (breast), 48 h drug exposure, SRB, ± SD
Experimental: as §1, §2, §3

[3] = tested on: HeLa, T-47D, WiDr, A549, HBL-100, and SW1573 cell lines; assay: Antiproliferative SRB assay, whole panel of human solid tumor cell lines; assay type: cell-based; conditions: for Antiproliferative activity (in words): solid tumor cell lines evaluated
Experimental: as §1, §2, §3

SW1573 = assay: Antiproliferative SRB assay (NCI protocol), SW1573; assay type: cell-based, human; conditions: for GI50: SW1573 (non-small cell lung), 48 h drug exposure, SRB, ± SD
Experimental: as §1, §2, §3

A549 = assay: Antiproliferative SRB assay (NCI protocol), A549; assay type: cell-based, human; conditions: for GI50: A549 (lung), 48 h drug exposure, SRB, ± SD
Experimental: as §1, §2, §3

| pIC50 [1] | SMILES | Selectivity index (SI) on tumor cells (T-47D) | GI50 (T-47D; Homo sapiens, T47D) [µM] | Selectivity index (SI) on tumor cells (WiDr) | GI50 (WiDr; Homo sapiens) [µM] | Selectivity index (SI) on tumor cells (HeLa) | GI50 (HeLa; Homo sapiens) [µM] | Selectivity Index on T. cruzi epimastigotes [1] | CC50 [2] [µM] | GI50 (HBL-100; Homo sapiens) [µM] | GI50 (SW1573; Homo sapiens) [µM] | also measured |
| --- | --- | --- | --- | --- | --- | --- | --- | --- | --- | --- | --- | --- |
| 4.83 | C#CCCCc1cn(CC(=C)[C@@H]2CC[C@@]3(C)CCC[C@@](C)(O)C3C2)nn1 (stereo partly drawn) [Compound 17] | 1.4 | 29 | 1.3 | 31 | 1.3 | 31 | 2.7 | 40.4 | – | – | – |
| 3.81 | C=C(CO)[C@@H]1CC[C@@]2(C)CCC[C@@](C)(O)[C@@H]2C1 [Compound 3, ilicic alcohol] | – | > 100 | – | > 100 | – | > 100 | – | – | > 100 | > 100 | Antiproliferative activity (in words) [3]: did not show antiproliferative activity; Trypanocidal activity (in words) [1]: nor trypanocidal activity |
| 4.52 | C=C(Cn1cc(Cc2ccccc2)nn1)[C@@H]1CC[C@@]2(C)CCC[C@@](C)(O)C2C1 (stereo partly drawn) [Compound 18] | 1.4 | 44 | 1.6 | 39 | – | > 100 | 2.1 | 62.2 | – | – | – |
| 5.06 | C=C(Cn1cc(CCCCCCCCCC)nn1)[C@@H]1CC[C@@]2(C)CCC[C@@](C)(O)C2C1 (stereo partly drawn) [Compound 16] | 4.8 | 17 | 6.8 | 12 | 6.3 | 13 | 9.4 | 82.4 | – | – | GI50 ([3]; Homo sapiens, minimal to maximal GI50 across the cell lines tested, 48 h, SRB, read-out: GI50 values, range over all cell lines tested): 12 to 17 µM |
| < 3.70 | C=C(C(=O)O)[C@@H]1CC[C@@]2(C)CCC[C@@](C)(O)[C@@H]2C1 [Compound 2, ilicic acid] | – | > 100 | – | > 100 | – | > 100 | – | – | > 100 | > 100 | Antiproliferative activity (in words) [3]: did not show antiproliferative activity; Trypanocidal activity (in words) [1]: nor trypanocidal activity |
| 5.03 | C=C(C(=O)N(Cc1ccccc1)C(C)(C)C(=O)NC(C)(C)C)[C@@H]1CCC2=CC(=O)C[C@H](C)[C@@]2(C)C1 [Compound 5] | – | > 100 | – | > 100 | – | > 100 | 4.8 | 44.7 | > 100 | > 100 | GI50 (A549; Homo sapiens): > 100 µM |
| 4.79 | C=C(C(=O)N(c1ccccc1)C(C)(C)C(=O)NC(C)(C)C)[C@@H]1CCC2=CC(=O)C[C@H](C)[C@@]2(C)C1 [Compound 4] | 0.2 | 95 | 0.2 | 98 | 0.3 | 68 | 1.1 | 17.3 | > 100 | 57 | Selectivity index (SI) on tumor cells (A549; CC50 splenocytes / GI50 A549): 0.25; GI50 (A549; Homo sapiens): 68 µM; Selectivity index (SI) on tumor cells (SW1573; CC50 splenocytes / GI50 SW1573): 0.3 |
| – | N.N.[Cl][Pt][Cl] [Cisplatin, reference compound] | – | – | – | – | – | – | – | – | – | – | GI50 (T-47D): 17 µM; GI50 (WiDr): 23 µM; GI50 (HBL-100): 1.9 µM; GI50 (HeLa): 1.8 µM; GI50 (A549): 4.9 µM; GI50 (SW1573): 2.7 µM |
| 4.32 | C=C(Cn1cc(-c2ccccc2)nn1)[C@@H]1CC[C@@]2(C)CCC[C@@](C)(O)C2C1 (stereo partly drawn) [Compound 19] | 3.1 | 61 | 4.6 | 41 | 2.4 | 79 | 3.9 | 187 | – | – | – |

From paper PMC9143450, “Oxonitrogenated Derivatives of Eremophilans and Eudesmans: Antiproliferative and Anti-Trypanosoma cruzi Activity” (Molecules, 2022)
